We go through 3 compounds from patent publication US7452906B2, “Pyridine derivatives as Raf kinase inhibitors” (SmithKline Beecham P.L.C., priority 2001, dated 2008).

The subject of assay [1] is Human diploid foreskin fibroblasts (HFF). Briefly: XTT 72 hr Growth Inhibition (Assay 3), HFF. As to conditions: Fibroblast, normal, B-Raf wt, Ras wt. The format is cell-based. Here is the method: (§1) XTT 72 hr Growth Inhibition Protocol for Mammalian Cultured Cells (Assay 3)
(§2) Human diploid foreskin fibroblasts (HFF) or human colon carcinoma (Colo 201) cells were grown in Dulbecco's modified Eagle's medium (DMEM) (Invitrogen/Life Technologies) containing 10% fetal bovine serum (FBS) and the antibiotics penicillin (100 Units/ml) and streotomycin (100 micrograms/ml) (Invitrogen/Life Technologies). Growth was at 37° C. in humidified 5% CO2 incubators in 75 cm^2 plastic flasks. Cells were harvested using 0.25% trypsin/1 mM ethylenediaminetetraacetic acid (EDTA), resuspended in growth medium, and counted using a hemocytometer. Flat-bottomed 96-well plates were seeded with 2×10^3 cells/well in a volume of 200 ul from trypsinized exponentially growing cultures. To “blank” wells, growth medium was added with no additions. Cells were incubated overnight to permit attachment.
(§3) Next day, medium from wells that contained cells was replaced with 180 microliters of fresh medium. Appropriate dilutions of test compounds were added to the wells from stock soloutions of compound dissolved in dimethyl sulfoxide DMSO); final DMSO concentration in all wells was 0.2%. Cells plus compound were incubated for an additional 72 hr at 37° C. under normal growth conditions. Cells were then assayed for viability using standard XTT/PMS*. Fifty microliters of XTT/PMS solution was added to each well and plates were incubated for 90 minutes at 37° C. Absorbance at 450 nm was then determined using a 96-well UV plate reader (Molecular Devices). Under these conditions, absorbance of untreated control cells at 450 nm was at least 1.0 optical density unit/ml. […] It was equal to 100×(A450 test well/A450 untreated control well), the A450s being averages of triplicate determinations. […]
(In general: Tetrazolium dyes change colour on reduction, which living cells bring about.)

The subject of a further assay is human melanoma SKMEL2. The assay is described as follows: Methylene Blue Growth Inhibition Assay (Assay 2), SKMEL2. The format is cell-based. As to conditions: SK-MEL-2, 72 h, B-Raf wt, [Q61R]N-Ras, 3 days. Here is the method: (§4) Methylene Blue Growth Inhibition Assay (Assay 2)
(§5) Normal human foreskin fibroblasts (HFF), human melanoma (A375P, SKMEL2, SKMEL3) colon carcinoma (Colo 205) were cultured in the following growth media: A375P, Colo 205, Roswell Park Memorial Institute (RPMI) 1640 (Life Technologies 22400-089) containing 10% fetal bovine serum (FBS); HFF, Dulbecco's modified Eagle Medium (DMEM) (Life Technologies 12320-032) containing 10% FBS; SKMEL2 and SKMEL3, Minimum Essential Medium (MEM, Life Technologies 11095-080) containing 1× non-essential amino acids (Life Technologies 11140-050) and 10% FBS. Cells were harvested using 0.25% trypsin/1 mM, EDTA, counted using a haemocytometer, and plated in 100 microliters of the appropriate media, at the following densities, in a 96-well tissue culture plate Falcon 3075): HFF and A375P, 5,000 cells/well; all other cell lines, 10,000 cells/well. The next day, compounds were diluted in RPMI containing 100 micrograms/ml gentamicin, at twice the final required concentration, from 10 mM stock solutions in dimethyl sulphoxide (DMSO). One hundred microliters per well of these dilutions were added to the 100 microliters of media currently on the cell plates. RPMI containing 0.6% DMSO was added to control wells. […]. The final concentration of DMSO in all wells was 0.3%. Cells were incubated at 37° C., 5% CO2 for 3 days. Medium was removed by aspiration. Cell biomass was estimated by staining cells with 90 μl per well methylene blue (Sigma M9140, 0.5% in 50:50 ethanol:water) and incubation at room temperature for at least 30 minutes. Stain was removed, the plates rinsed by immersion in deionized water and air-dried. To release stain from the cells 100 μl of solubilization solution was added (1% N-lauroyl sarcosine, sodium salt, Sigma L5125, in phosphate-buffered saline solution (PBS)), and plates were incubated at room temperature for 30 minutes. Optical density at 620 nm was measured on a microplate reader. Percent inhibition of cell growth was calculated relative to vehicle treated control wells. […]

A further assay concerns human melanoma A375P. Briefly: Methylene Blue Growth Inhibition Assay (Assay 2), A375P. The format is cell-based. As to conditions: 72 h, B-Raf V599E, Ras wt, 3 days. Here is the method: as §4, §5
Assay [2] concerns colon carcinoma (Colo 205). Briefly: Methylene Blue Growth Inhibition Assay (Assay 2), Colo205. It counts as cell-based. The note with it: Homo sapiens, COLO 205, 72 h, colorectal cancer, B-Raf V599E, Ras wt, 3 days. Here is the method:
as §4, §5

The next assay concerns human melanoma SKMEL3. Briefly: Methylene Blue Growth Inhibition Assay (Assay 2), SKMEL3. As to conditions: SK-MEL3, 72 h, B-Raf V599E, Ras wt, 3 days. It counts as cell-based. The protocol:
as §4, §5

Assay [3] has as its system human colon carcinoma (Colo 201) cells. Briefly: XTT 72 hr Growth Inhibition (Assay 3), Colo201. The format is cell-based. The note with it: colorectal cancer, B-Raf and Ras status ND. Here is the method:
as §1, §2, §3

Assay [4] addresses T1, human recombinant B-Raf protein (Homo sapiens, UniProt P15056).
T1 construct: made in house; host or cells: Sf9 insect cells (baculovirus)
The assay is described as follows: Raf Kinase Assay (Assay 1): incorporation of radiolabelled phosphate into GST-kdMEK. It counts as biochemical. The note with it: head: Assay 1.
Method: Activity of human recombinant B-Raf protein was assessed in vitro by assay of the incorporation of radiolabelled phosphate to recombinant MAP kinase kinase (MEK), a known physiologic substrate of B-Raf. Catalytically active human recombinant B-Raf protein was obtained by purification from Sf9 insect cells infected with a human B-Raf recombinant baculovirus expression vector.
Method: Standard assay conditions of B-Raf catalytic activity utilised 3 ug of GST-kdMEK, 10 uM ATP and 2uCi ^33P-ATP, 50 mM MOPS, 0.1 mM EDTA, 0.1M sucrose, 10 mM MgCl2 plus 0.1% dimethylsulphoxide (containing compound where appropriate) in a total reaction volume of 30 ul. Reactions were incubated at 25° C. for 90 minutes and reactions terminated by addition of ethylenediaminetetraacetic acid (EDTA) to a final concentration of 50 uM. 10 ul of reaction was spotted to P81 phosphocellulose paper and air dried. Following four washes in ice cold 10% trichloroacetic acid, 0.5% phosphoric acid, papers were air dried prior to addition of liquid scintillant and measurement of radioactvity in a scintillation counter.

The structures appear in SMILES notation.

T1 sequence (P15056 whole entry): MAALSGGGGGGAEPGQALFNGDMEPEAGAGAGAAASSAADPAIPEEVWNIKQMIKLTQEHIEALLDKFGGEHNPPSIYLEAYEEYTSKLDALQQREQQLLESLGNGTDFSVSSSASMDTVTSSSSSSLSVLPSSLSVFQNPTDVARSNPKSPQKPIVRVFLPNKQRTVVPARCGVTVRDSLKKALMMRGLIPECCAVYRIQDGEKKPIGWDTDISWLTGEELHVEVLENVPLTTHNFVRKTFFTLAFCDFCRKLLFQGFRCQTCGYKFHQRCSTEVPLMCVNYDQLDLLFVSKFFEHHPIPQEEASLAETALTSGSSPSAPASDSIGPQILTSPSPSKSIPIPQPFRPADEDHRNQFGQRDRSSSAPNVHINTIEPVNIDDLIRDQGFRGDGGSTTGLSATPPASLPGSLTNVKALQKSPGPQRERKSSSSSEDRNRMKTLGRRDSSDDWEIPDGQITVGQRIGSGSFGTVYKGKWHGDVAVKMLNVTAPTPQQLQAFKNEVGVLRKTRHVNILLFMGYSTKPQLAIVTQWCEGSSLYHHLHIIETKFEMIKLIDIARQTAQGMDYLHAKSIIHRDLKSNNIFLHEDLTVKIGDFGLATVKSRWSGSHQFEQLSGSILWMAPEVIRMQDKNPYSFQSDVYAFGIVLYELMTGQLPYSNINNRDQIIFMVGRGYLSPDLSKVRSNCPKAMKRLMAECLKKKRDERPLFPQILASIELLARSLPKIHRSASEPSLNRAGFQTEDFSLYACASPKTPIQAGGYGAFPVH

Take `O=S1(=O)CCN(Cc2cc(-c3ccc4c(c3)CCC4=NO)c(-c3ccncc3)o2)CC1` [Example 5, 5-[5-(1,1-Dioxo-1-thiomorpholin-4-ylmethyl)-2-pyridin-4-yl-furan-3-yl]-indan-1-one oxime]: the half-maximal inhibitory concentration (IC50) (commonly the point on the concentration scale where inhibition reaches its midpoint) in assay [1] is over 30 µM; in the assay with human melanoma SKMEL2, 2.5 µM; in the assay with human melanoma A375P, 0.6 µM; in assay [2], 0.23 µM; in the assay on human melanoma SKMEL3, 5.4 µM; in assay [3], 0.89 µM. The Kd (commonly the free concentration of one partner at which half of the binding sites on the other are occupied at equilibrium, for simple one-to-one binding) in assay [4] was determined as 3.6 nM.
As to `ON=C1CCc2cc(-c3cc(C4CCNCC4)oc3-c3ccncc3)ccc21` [Example 31, 5-(5-Piperidin-4-yl-2-pyridin-4-yl-furan-3-yl)-indan-1-one oxime], the IC50 in assay [1] came out at 21 µM; in the assay with human melanoma SKMEL2 it was 0.17 µM; with human melanoma A375P it was 0.043 µM; in assay [2] it was 0.01 µM; in the assay on human melanoma SKMEL3, 0.65 µM; in assay [3] it was 0.01 µM.
Regarding `ON=C1CCc2cc(-c3cc(CN4CCOCC4)oc3-c3ccncc3)ccc21` [Example 1, 5-(5-Morpholin-4-ylmethyl-2-pyridin-4-yl-furan-3-yl)-indan-1-one oxime], the half-maximal inhibitory concentration (IC50) in assay [1] was over 30 µM; in the assay with human melanoma SKMEL2, 4.2 µM; in the assay on human melanoma A375P, 1.3 µM; in assay [2], 0.75 µM; with human melanoma SKMEL3, 5.3 µM; in assay [3], 0.49 µM.
